The source of these data is EP0403591B1, “CRF ANALOGS” (THE SALK INSTITUTE FOR BIOLOGICAL STUDIES, priority 1988, dated 1994).

For test [1], the system named is cultured rat pituitary cells. Kind of test: Secretion of ACTH and β-endorphin by cultured rat pituitary cells (procedure of Example III). It counts as cell-based. The note with it: for secretion of ACTH and β-END-LI: testing by the general procedure of Example III (in vitro and in vivo); for EC50: stimulation of secretion of ACTH and β-endorphin by cultured rat pituitary cells, read-out: Half-maximal responses (concentration). As for the experimental part:
The synthetic peptide from Example I and synthetic oCRF are examined for their effects on the secretion of ACTH and β-endorphin in vitro and also in vivo.
The potency of synthetic oCRF to stimulate the secretion of ACTH and β-endorphin by cultured rat pituitary cells is measured using the procedure as generally set forth in Endocrinology, 91, 562 (1972). Half-maximal responses are observed at concentrations of the peptide very substantially less than the synthetic oCRF concentrations of about 250 picomolar which are needed to achieve this response. In vivo testing is carried out using the general procedure set forth in C. Rivier et al., Science, 218, 377 (1982), and biological potency is ascertained.

Test [2] can be described thus: Lowering of blood pressure (in vivo testing, general procedure of Example III). The note with it: testing by the general procedure of Example III.
For test [3] the following is noted: background statement; in mammals; cited from earlier work.
The next test deals with ACTH and β-endorphin. The settings on record: background statement; in vitro and in vivo; cited from earlier work.
The conditions of test [4]: background statement; cited from earlier work.
For test [5] the following is noted: administered into the ventricles, rats; cited from earlier work.

Entries after “also recorded” stand apart in the source; their conditions may differ. Non-standard residues stand in square brackets, D forms with d. Residues, ends and D or L forms follow the SMILES beside them. No end group written: not given here. *: point of attachment. Nle = CCCC[C@H](N)C(=O)O; Bz = O=C(c1ccccc1)* A value given as a limit tells only on which side of the number the result lay.

In the case of “SEEPPISLDLTFHLLREVLHRARAEQLAQQALINRKLMEII-NH2 [IX, [His²⁰, Arg²¹, Leu³², Ile³³]-rCRF]”, the “secretion of ACTH and β-END-LI” value in test [1] is “stimulates the secretion of ACTH and β-END-LI”. In addition, in test [2], the “lowering of blood pressure” value is “very significant lowering of blood pressure to a greater extent than rCRF”.

With “SEEPPISLDLTFHLLREVLH[Nle]ARAEQLAQQALINRKLMEEI-NH2 [VIII, [His²⁰, Nle²¹, Leu³², Ile³³, Glu⁴⁰]-rCRF]”, the “secretion of ACTH and β-END-LI” value in test [1] was “stimulates the secretion of ACTH and β-END-LI”. The “lowering of blood pressure” value in test [2] is listed as “very significant lowering of blood pressure to a greater extent than rCRF”.

Consider `CC[C@H](C)[C@H](NC(=O)[C@H](CC(=O)O)NC(=O)[C@H](CC(C)C)NC(=O)[C@H](CC(C)C)NC(=O)[C@H](CCCCN)NC(=O)[C@H](CCCNC(=N)N)NC(=O)[C@H](CC(N)=O)NC(=O)[C@H](CO)NC(=O)[C@H](Cc1c[nH]cn1)NC(=O)[C@H](C)NC(=O)[C@H](CCC(N)=O)NC(=O)[C@H](CCC(N)=O)NC(=O)[C@H](C)NC(=O)[C@H](CC(C)C)NC(=O)[C@H](CCC(N)=O)NC(=O)[C@H](CC(=O)O)NC(=O)[C@H](C)NC(=O)[C@H](CCCCN)NC(=O)[C@@H](NC(=O)[C@H](CCSC)NC(=O)[C@H](CCC(=O)O)NC(=O)[C@H](CC(C)C)NC(=O)[C@@H](NC(=O)[C@H](CCC(=O)O)NC(=O)[C@H](CCCNC(=N)N)NC(=O)[C@H](CC(C)C)NC(=O)[C@H](CC(C)C)NC(=O)[C@H](Cc1c[nH]cn1)NC(=O)[C@H](Cc1ccccc1)NC(=O)[C@@H](NC(=O)[C@H](CC(C)C)NC(=O)[C@H](CC(=O)O)NC(=O)[C@H](CC(C)C)NC(=O)[C@H](CO)NC(=O)[C@@H](NC(=O)[C@@H]1CCCN1C(=O)[C@@H]1CCCN1C(=O)[C@H](CCC(=O)O)NC(=O)[C@H](CCC(N)=O)NC(=O)[C@@H](N)CO)[C@@H](C)CC)[C@@H](C)O)C(C)C)[C@@H](C)O)C(=O)N[C@@H](C)C(N)=O` [oCRF, ovine CRF], for which the EC50 in test [1] is about 0.25 nM. Also, in test [3], the lowering blood pressure entry is “biological activity in lowering blood pressure; also recorded: substantially lower blood pressure for an extended time period”. For the same molecule, the “secretion of ACTH and β-endorphin” value in the test with ACTH and β-endorphin is “stimulating the secretion of ACTH and β-endorphin; also recorded: stimulate ACTH and β-endorphin activities in vitro and in vivo”. Further, the gastric acid production result in test [4] is “inhibits gastric acid production”.

As for “Ac-PPISLDLTFHLLREVLHMARAEQLAEQAHSNRNLMEEI-NH2 [VII, [Acetyl-Pro⁴, His²⁰, Glu^29,40, Asn³⁶]-rCRF(4-41)]”, the “secretion of ACTH and β-END-LI” value in test [1] was “stimulates the secretion of ACTH and β-END-LI”. The “lowering of blood pressure” value in test [2] was “very significant lowering of blood pressure to a greater extent than rCRF”.

As for “SQEPPISLELTFHLLRE[Nle]LHRAKAEQEAEQAALNRLLLEEA-NH2 [X]”, the “secretion of ACTH and β-END-LI” value in test [1] was “stimulates the secretion of ACTH and β-END-LI”. In addition, the “lowering of blood pressure” value in test [2] is listed as “very significant lowering of blood pressure”.

Take “SQEPPISLDLTFHLLRE[Nle]LH[Nle]AKAEQEAEQAALNRLLLEEA-NH2 [XI]”: the “secretion of ACTH and β-END-LI” value in test [1] was “stimulates the secretion of ACTH and β-END-LI”. The “lowering of blood pressure” value in test [2] was “very significant lowering of blood pressure”.

As to “SQEPPISLDLTFHMLREMLHRAKMEGEAEQALINRNLLEEA-NH2 [XIII]”, the “secretion of ACTH and β-END-LI” value in test [1] was “stimulates the secretion of ACTH and β-END-LI”. In addition, the “lowering of blood pressure” value in test [2] is “very significant lowering of blood pressure”.

As for “SQEPPISLDLTFHLLREMLHRAKAEQEAEQAAINRLLLEEA-NH2 [XIX]”, the “secretion of ACTH and β-END-LI” value in test [1] was “stimulates the secretion of ACTH and β-END-LI”. Besides, the “lowering of blood pressure” value in test [2] is on record as “very significant lowering of blood pressure”.

For the molecule “SEEPPISLDLTFHLLREVLHMARAEGLAQQAHSNRKLMEII-NH2 [IV, [His²⁰, Gly²⁶)-rCRF]”, in test [1], the “secretion of ACTH and β-END-LI” value was “stimulates the secretion of ACTH and β-END-LI”. Further, in test [2], the “lowering of blood pressure” value is listed as “very significant lowering of blood pressure”.

Consider “CRF: corticotropin releasing factor, species not specified (SEEPPISLDLTFHLLREVLEMARAEQLAQQAHSNRKLMEII; ends and bridges not checked; UniProt P06850 154-194, looked up)”, for which the “activity and learning performance” value in test [5] is “increases activity and improves learning performance”.

Regarding [D-Pro⁴, His²⁰]-oCRF(4-41) [XVI], in test [1], the “secretion of ACTH and β-END-LI” value was “stimulates the secretion of ACTH and β-END-LI”. For the same molecule, the “lowering of blood pressure” value in test [2] is given as “very significant lowering of blood pressure”.

Regarding “SEEPPISLDLTFHLLREVLHMARAEQLAQQAHSNRKLMEII-NH2 [Example I, [His²⁰]-rCRF]”, the EC50 in test [1] is under 0.25 nM.

In the case of “SQEPPISLDLTFHLLREVLH[Nle]TKADQLAQQAHSNRKLLDIA-NH2 [XV, [His²⁰, Nle²¹]-oCRF]”, the “secretion of ACTH and β-END-LI” value in test [1] was “stimulates the secretion of ACTH and β-END-LI”. Moreover, the “lowering of blood pressure” value in test [2] is recorded as “very significant lowering of blood pressure”.

For “Rat CRF (SEEPPISLDLTFHLLREVLEMARAEQLAQQAHSNRKLMEII; ends and bridges not checked; UniProt P01143 145-185, looked up) [rCRF, hentetracontapeptide; formula of human CRF is the same as that of rCRF]”, the lowering blood pressure result in test [3] was “substantially lower blood pressure for an extended time period”. In the test on ACTH and β-endorphin, the “secretion of ACTH and β-endorphin” value was “stimulate ACTH and β-endorphin activities in vitro and in vivo”.

As for “SQ[dY]PPISLDLTFHLLRE[Nle]LH[Nle]AKAGQEAEQAALNRLLLEEA-NH2 [XII]”, the “secretion of ACTH and β-END-LI” value in test [1] was “stimulates the secretion of ACTH and β-END-LI”. Moreover, the “lowering of blood pressure” value in test [2] was “very significant lowering of blood pressure”.

Regarding `CCCC[C@H](NC(=O)[C@H](Cc1c[nH]cn1)NC(=O)[C@H](CC(C)C)NC(=O)[C@H](CCCC)NC(=O)[C@H](CCC(=O)O)NC(=O)[C@H](CCCNC(=N)N)NC(=O)[C@H](CC(C)C)NC(=O)[C@H](CC(C)C)NC(=O)[C@H](Cc1c[nH]cn1)NC(=O)[C@H](Cc1ccccc1)NC(=O)[C@@H](NC(=O)[C@H](CC(C)C)NC(=O)[C@H](CC(=O)O)NC(=O)[C@H](CC(C)C)NC(=O)[C@H](CO)NC(=O)[C@@H](NC(=O)[C@@H]1CCCN1C(=O)[C@@H]1CCCN1)[C@@H](C)CC)[C@@H](C)O)C(=O)N[C@@H](C)C(=O)N[C@@H](CCCNC(=N)N)C(=O)N[C@@H](C)C(=O)N[C@@H](CCC(=O)O)C(=O)N[C@@H](CCC(N)=O)C(=O)N[C@@H](CCC(=O)O)C(=O)N[C@@H](C)C(=O)N[C@@H](CCC(=O)O)C(=O)N[C@@H](CCC(N)=O)C(=O)N[C@@H](C)C(=O)N[C@@H](CC(C)C)C(=O)N[C@@H](CC(C)C)C(=O)N[C@@H](CC(N)=O)C(=O)N[C@@H](CCCNC(=N)N)C(=O)N[C@@H](CC(N)=O)C(=O)N[C@@H](CC(C)C)C(=O)N[C@@H](CC(C)C)C(=O)N[C@@H](CCC(=O)O)C(=O)N[C@@H](CCC(=O)O)C(=O)N[C@@H](C)C(N)=O` [XVII] (H-PPISLDLTFHLLRE[Nle]LH[Nle]ARAEQEAEQALLNRNLLEEA-NH2), the “secretion of ACTH and β-END-LI” value in test [1] is “stimulates the secretion of ACTH and β-END-LI”. The “lowering of blood pressure” value in test [2] is recorded as “very significant lowering of blood pressure”.

For “Bz-GEEPPISLDLT[Nle]HLLREVLHMARAEQLAQQAHSNRRLMEII-NH2 [VI, [Benzoyl-Gly¹, Nle¹², His²⁰, Arg³⁶]-rCRF]”, in test [1], the “secretion of ACTH and β-END-LI” value was “stimulates the secretion of ACTH and β-END-LI”. The “lowering of blood pressure” value in test [2] was “very significant lowering of blood pressure”.

For the molecule “SQEPPISLDLTFHMLREMLHMAKMEQEAEQAALNRLLLEEA-NH2 [XVIII]”, in test [1], the “secretion of ACTH and β-END-LI” value is “stimulates the secretion of ACTH and β-END-LI”. For the same molecule, in test [2], the “lowering of blood pressure” value was “very significant lowering of blood pressure”.

Consider Sauvagine, for which, in test [3], the lowering blood pressure entry is given as “biological activity in lowering blood pressure”. Moreover, the “secretion of ACTH and β-endorphin” value with ACTH and β-endorphin was “stimulating the secretion of ACTH and β-endorphin”.

For the molecule “SQEPPISLDLTFHLLREVLHMTKADQLAQQAHSNRNLLDIA-NH2 [XIV, [His²⁰, Asn³⁶]-oCRF]”, the “secretion of ACTH and β-END-LI” value in test [1] was “stimulates the secretion of ACTH and β-END-LI”. Also, in test [2], the “lowering of blood pressure” value is on record as “very significant lowering of blood pressure”.

For the molecule “SEEPPISLELTFHLLREVLH[Nle]ARAEQLAEQAHINRKLMEII-NH2 [V, [Glu⁹, His²⁰, Nle²¹, Glu²⁹, Ile³³]-rCRF]”, the “secretion of ACTH and β-END-LI” value in test [1] is “stimulates the secretion of ACTH and β-END-LI”. For the same molecule, the “lowering of blood pressure” value in test [2] is listed as “very significant lowering of blood pressure to a greater extent than rCRF”.
